# Reference: patent US20170152226A1, “FUNCTIONALISED AND SUBSTITUTED INDOLES AS ANTI-CANCER AGENTS” (Novogen Ltd., priority 2014, published 2017)
# Like-named read-outs stand apart in the source and are kept apart here.
# How the values were obtained:
# Experiment in all cases: Anti-proliferative activity, cell-titre luminescent viability assay
# Format in all cases: cell-based
# DU145 = settings: Homo sapiens, read-out: IC50 Prostate DU145
# Protocol: (§1) The ability of compounds 3501-3540 and 3542-3545 to inhibit the proliferation of cancer cells representative of neuroblastoma, melanoma, prostate cancer, colorectal cancer, non-small cell lung carcinoma, and triple negative breast cancer was assessed. Briefly, a pre-determined number of cells as calculated from cell growth assays for each of the cell lines employed were seeded into their respective culture medium (using ATCC culture parameters—http://www.atcc.org) and cultured for 24 hours at 37° C. and 5% CO2 in 96-well culture plates. Once attached, each cell line was then exposed to increasing concentrations of each respective analogue (0.03, 0.3, 3 and 30 μM for compounds in Table 1; 0.1, 0.3, 1, 3, 10 and 30 μM for compounds in Table 2), cultured for a further 72 hours and exposed to cell-titre luminescent reagent (100 μL/well) for a further 30 min) to assess for cell viability. Luminescence was captured using an EnVision multilabel reader and the data for each analogue concentration was normalized, as a percentage, to the no treatment control. For compounds 3501, 3503, 3505-08, 3512-18, 3520, 3522-24 and 3531-36, semi-log plots of Percent of Control versus concentration were prepared and IC50 determined using linear regression analysis. For compounds 3502, 3504, 3509-11, 3519, 3521, 3525-30, 3537-40 and 3542-45, cell viability was normalized to control (vehicle alone) and dose-response curves, and half maximal effective concentration (EC50) values were determined using Graph Pad Prism 6 (nonlinear regression sigmoidal dose-response variable slope).
# SK-Mel-28 = settings: Homo sapiens, SK-MEL-28, 72 hours, read-out: IC50 Melanoma SK-Mel-28
# Protocol: as §1
# A549 = settings: Homo sapiens, read-out: IC50 Lung (NSLC) A549
# Protocol: as §1
# CaCo2 = settings: Homo sapiens, read-out: IC50 Colorectal CaCo2
# Protocol: as §1
# SK-N-SH = settings: Homo sapiens, SK-N-SH, read-out: IC50 Neuroblastoma SK-N-SH
# Protocol: as §1
# PC3 = settings: Homo sapiens, read-out: IC50 Prostate PC3
# Protocol: as §1
# MDA-MB-231 = settings: Homo sapiens, read-out: IC50 Breast MDA-MB-231
# Protocol: as §1
# [1] = DU-145, 72 h, 0.03, 0.3, 3 and 30 μM, linear regression of semi-log plots
# [2] = 0.03, 0.3, 3 and 30 μM, linear regression of semi-log plots
# [3] = A549, 72 h, 0.03, 0.3, 3 and 30 μM, linear regression of semi-log plots
# [4] = Caco-2, 72 h, 0.03, 0.3, 3 and 30 μM, linear regression of semi-log plots
# [5] = 72 h, 0.03, 0.3, 3 and 30 μM, linear regression of semi-log plots
# [6] = PC-3, 72 h, 0.03, 0.3, 3 and 30 μM, linear regression of semi-log plots
# [7] = MDA-MB-231, 72 h, 0.03, 0.3, 3 and 30 μM, linear regression of semi-log plots
# [8] = DU-145, 72 h, 0.1, 0.3, 1, 3, 10 and 30 μM, nonlinear regression sigmoidal dose-response (EC50)
# [9] = 0.1, 0.3, 1, 3, 10 and 30 μM, nonlinear regression sigmoidal dose-response (EC50)
# [10] = A549, 72 h, 0.1, 0.3, 1, 3, 10 and 30 μM, nonlinear regression sigmoidal dose-response (EC50)
# [11] = Caco-2, 72 h, 0.1, 0.3, 1, 3, 10 and 30 μM, nonlinear regression sigmoidal dose-response (EC50)
# [12] = 72 h, 0.1, 0.3, 1, 3, 10 and 30 μM, nonlinear regression sigmoidal dose-response (EC50)
# [13] = PC-3, 72 h, 0.1, 0.3, 1, 3, 10 and 30 μM, nonlinear regression sigmoidal dose-response (EC50)
# [14] = MDA-MB-231, 72 h, 0.1, 0.3, 1, 3, 10 and 30 μM, nonlinear regression sigmoidal dose-response (EC50)
smiles,measurement,setting,value
"Cc1c(C)n(CCCN2CCN(C)CC2)c2ccc(Cc3cccc(C(=O)N4CCN(CCc5ccc(F)cc5)CC4)c3)cc12 [Compound 3501, (3-((2,3-dimethyl-1-(3-(4-methylpiperazin-1-yl)propyl)-1H-indol-5-yl)methyl)phenyl)(4-(4-fluorophenethyl)piperazin-1-yl)methanone]",IC50,DU145; [1],2.6 µM
same,IC50,SK-Mel-28; [2],1300 nM
same,IC50,A549; [3],3.7 µM
same,IC50,CaCo2; [4],3.1 µM
same,IC50,SK-N-SH; [5],3.1 µM
same,IC50,PC3; [6],2.4 µM
same,IC50,MDA-MB-231; [7],2.1 µM
"COc1ccc(CCN2CCN(C(=O)c3cccc(Cc4ccc5c(c4)c(C)c(C)n5CCCN4CCN(C)CC4)c3)CC2)cc1 [Compound 3502, (3-((2,3-dimethyl-1-(3-(4-methylpiperazin-1-yl)propyl)-1H-indol-5-yl)methyl)phenyl)(4-(4-methoxyphenethyl)piperazin-1-yl)methanone]",IC50,DU145; [8],4.9 µM
same,IC50,SK-Mel-28; [9],2600 nM
same,IC50,A549; [10],5 µM
same,IC50,CaCo2; [11],5.8 µM
same,IC50,SK-N-SH; [12],4.6 µM
same,IC50,PC3; [13],5.4 µM
same,IC50,MDA-MB-231; [14],4.9 µM
"Cc1c(C)n(CCCN2CCN(C)CC2)c2ccc(Cc3cccc(C(=O)N4CCN(CCc5ccc6c(c5)OCO6)CC4)c3)cc12 [Compound 3503, (4-(2-(benzo[d][1,3]dioxol-5-yl)ethyl)piperazin-1-yl)(3-((2,3-dimethyl-1-(3-(4-methylpiperazin-1-yl)propyl)-1H-indol-5-yl)methyl)phenyl)methanone]",IC50,DU145; [1],2.1 µM
same,IC50,SK-Mel-28; [2],1000 nM
same,IC50,A549; [3],1.4 µM
same,IC50,CaCo2; [4],3.4 µM
same,IC50,SK-N-SH; [5],2.1 µM
same,IC50,PC3; [6],2.4 µM
same,IC50,MDA-MB-231; [7],1 µM
"COc1cccc(CCN2CCN(C(=O)c3cccc(Cc4ccc5c(c4)c(C)c(C)n5CCCN4CCN(C)CC4)c3)CC2)c1 [Compound 3505, (3-((2,3-dimethyl-1-(3-(4-methylpiperazin-1-yl)propyl)-1H-indol-5-yl)methyl)phenyl)(4-(3-methoxyphenethyl)piperazin-1-yl)methanone]",IC50,DU145; [1],3.4 µM
same,IC50,SK-Mel-28; [2],2500 nM
same,IC50,A549; [3],3.1 µM
same,IC50,CaCo2; [4],3.6 µM
same,IC50,SK-N-SH; [5],2.6 µM
same,IC50,PC3; [6],2.6 µM
same,IC50,MDA-MB-231; [7],2.8 µM
"Cc1c(C)n(CCCN2CCN(C)CC2)c2ccc(Cc3cccc(C(=O)N4CCN(CCc5ccccc5)CC4)c3)cc12 [Compound 3506, (3-((2,3-dimethyl-1-(3-(4-methylpiperazin-1-yl)propyl)-1H-indol-5-yl)methyl)phenyl)(4-phenethylpiperazin-1-yl)methanone]",IC50,DU145; [1],3.2 µM
same,IC50,SK-Mel-28; [2],1300 nM
same,IC50,A549; [3],3 µM
same,IC50,CaCo2; [4],2.7 µM
same,IC50,SK-N-SH; [5],3.7 µM
same,IC50,PC3; [6],2.1 µM
same,IC50,MDA-MB-231; [7],1.9 µM
"COc1ccc(CCN2CCN(C(=O)c3cccc(Oc4ccc5c(c4)c(C)c(C)n5CCCN4CCN(C)CC4)c3)CC2)cc1 [Compound 3508, (3-((2,3-dimethyl-1-(3-(4-methylpiperazin-1-yl)propyl)-1H-indol-5-yl)oxy)phenyl)(4-(4-methoxyphenethyl)piperazin-1-yl)methanone]",IC50,DU145; [1],3.1 µM
same,IC50,SK-Mel-28; [2],1600 nM
same,IC50,A549; [3],1.8 µM
same,IC50,CaCo2; [4],3.1 µM
same,IC50,SK-N-SH; [5],1.7 µM
same,IC50,PC3; [6],2.4 µM
same,IC50,MDA-MB-231; [7],1.8 µM
"Cc1c(C)n(CCCN2CCN(C)CC2)c2ccc(Oc3cccc(C(=O)N4CCN(CCc5ccc6c(c5)OCO6)CC4)c3)cc12 [Compound 3509, (4-(2-(benzo[d][1,3]dioxol-5-yl)ethyl)piperazin-1-yl)(3-((2,3-dimethyl-1-(3-(4-methylpiperazin-1-yl)propyl)-1H-indol-5-yl)oxy)phenyl)methanone]",IC50,DU145; [8],5.9 µM
same,IC50,SK-Mel-28; [9],5100 nM
same,IC50,A549; [10],4.7 µM
same,IC50,CaCo2; [11],5.2 µM
same,IC50,SK-N-SH; [12],5.3 µM
same,IC50,PC3; [13],6.9 µM
same,IC50,MDA-MB-231; [14],5 µM
"Cc1c(C)n(CCCN2CCN(C)CC2)c2ccc(Oc3cccc(C(=O)N4CCN(CCc5cccc(F)c5)CC4)c3)cc12 [Compound 3510, (3-((2,3-dimethyl-1-(3-(4-methylpiperazin-1-yl)propyl)-1H-indol-5-yl)oxy)phenyl)(4-(3-fluorophenethyl)piperazin-1-yl)methanone]",IC50,DU145; [8],8 µM
same,IC50,SK-Mel-28; [9],4900 nM
same,IC50,A549; [10],6 µM
same,IC50,CaCo2; [11],5.8 µM
same,IC50,SK-N-SH; [12],4.6 µM
same,IC50,PC3; [13],8 µM
same,IC50,MDA-MB-231; [14],20.4 µM
"COc1cccc(CCN2CCN(C(=O)c3cccc(Oc4ccc5c(c4)c(C)c(C)n5CCCN4CCN(C)CC4)c3)CC2)c1 [Compound 3511, (3-((2,3-dimethyl-1-(3-(4-methylpiperazin-1-yl)propyl)-1H-indol-5-yl)oxy)phenyl)(4-(3-methoxyphenethyl)piperazin-1-yl)methanone]",IC50,DU145; [8],3.3 µM
same,IC50,SK-Mel-28; [9],6500 nM
same,IC50,A549; [10],2.6 µM
same,IC50,CaCo2; [11],3.5 µM
same,IC50,SK-N-SH; [12],2.1 µM
same,IC50,PC3; [13],2.6 µM
same,IC50,MDA-MB-231; [14],19.3 µM
"Cc1c(C)n(CCCN2CCN(C)CC2)c2ccc(Oc3cccc(C(=O)N4CCN(CCc5ccccc5)CC4)c3)cc12 [Compound 3512, (3-((2,3-dimethyl-1-(3-(4-methylpiperazin-1-yl)propyl)-1H-indol-5-yl)oxy)phenyl)(4-phenethylpiperazin-1-yl)methanone]",IC50,DU145; [1],1.3 µM
same,IC50,SK-Mel-28; [2],700 nM
same,IC50,A549; [3],1.3 µM
same,IC50,CaCo2; [4],3.2 µM
same,IC50,SK-N-SH; [5],1.8 µM
same,IC50,PC3; [6],2.1 µM
same,IC50,MDA-MB-231; [7],1.2 µM
"Cc1c(C)n(CCCN2CCN(C)CC2)c2ccc(Nc3cccc(C(=O)N4CCN(CCc5ccc(F)cc5)CC4)c3)cc12 [Compound 3513, (3-((2,3-dimethyl-1-(3-(4-methylpiperazin-1-yl)propyl)-1H-indol-5-yl)amino)phenyl)(4-(4-fluorophenethyl)piperazin-1-yl)methanone]",IC50,DU145; [1],3.8 µM
same,IC50,SK-Mel-28; [2],3400 nM
same,IC50,A549; [3],3.3 µM
same,IC50,CaCo2; [4],3.1 µM
same,IC50,SK-N-SH; [5],3.3 µM
same,IC50,PC3; [6],4 µM
same,IC50,MDA-MB-231; [7],3.6 µM
"COc1ccc(CCN2CCN(C(=O)c3cccc(Nc4ccc5c(c4)c(C)c(C)n5CCCN4CCN(C)CC4)c3)CC2)cc1 [Compound 3514, (3-((2,3-dimethyl-1-(3-(4-methylpiperazin-1-yl)propyl)-1H-indol-5-yl)amino)phenyl)(4-(4-methoxyphenethyl)piperazin-1-yl)methanone]",IC50,DU145; [1],3.8 µM
same,IC50,SK-Mel-28; [2],1300 nM
same,IC50,A549; [3],1.4 µM
same,IC50,CaCo2; [4],3.1 µM
same,IC50,SK-N-SH; [5],1.3 µM
same,IC50,PC3; [6],3.5 µM
same,IC50,MDA-MB-231; [7],1.3 µM
"Cc1c(C)n(CCCN2CCN(C)CC2)c2ccc(Nc3cccc(C(=O)N4CCN(CCc5ccc6c(c5)OCO6)CC4)c3)cc12 [Compound 3515, (4-(2-(benzo[d][1,3]dioxol-5-yl)ethyl)piperazin-1-yl)(3-((2,3-dimethyl-1-(3-(4-methylpiperazin-1-yl)propyl)-1H-indol-5-yl)amino)phenyl)methanone]",IC50,DU145; [1],4 µM
same,IC50,SK-Mel-28; [2],2700 nM
same,IC50,A549; [3],4.3 µM
same,IC50,CaCo2; [4],4.6 µM
same,IC50,SK-N-SH; [5],3.4 µM
same,IC50,PC3; [6],4.9 µM
same,IC50,MDA-MB-231; [7],3.3 µM
"COc1cccc(CCN2CCN(C(=O)c3cccc(Nc4ccc5c(c4)c(C)c(C)n5CCCN4CCN(C)CC4)c3)CC2)c1 [Compound 3517, (3-((2,3-dimethyl-1-(3-(4-methylpiperazin-1-yl)propyl)-1H-indol-5-yl)amino)phenyl)(4-(3-methoxyphenethyl)piperazin-1-yl)methanone]",IC50,DU145; [1],7.1 µM
same,IC50,SK-Mel-28; [2],3700 nM
same,IC50,A549; [3],4.4 µM
same,IC50,CaCo2; [4],> 30 µM
same,IC50,SK-N-SH; [5],4.5 µM
same,IC50,PC3; [6],21.1 µM
same,IC50,MDA-MB-231; [7],5.3 µM
